pKd, pKi: −log10 of the molar value.
Columns and labels:
[1] = test system: rats following spinal nerve ligation (SNL); assay: Thermal and tactile hyperalgesia after spinal nerve ligation (SNL); assay type: in vivo, rat
Procedure: FIG. 7 illustrates the scheme for testing the DCUK ethyl ester in neuropathic pain models. In FIG. 7 graphs showing attenuation of tactile (Panel A) and thermal (Panel B) hyperalgesia in animals following spinal nerve ligation (SNL) are provided. DCUK-OEt (30 or 100 mg/kg) was administered at the time indicated by the arrow. Hyperalgesic responses were followed for the next 180 minutes. The shaded area represents the area of hyperalgesia produced by SNL. BL on the X-axis represents the baseline response of animals prior to spinal nerve ligation. SNL represents the response of the animals after spinal nerve ligation and prior to receiving the DCUKA ethyl ester.
Spinal Nerve Ligation and Sham Surgery. Anesthesia was maintained with 0.5% halothane in oxygen. After surgical preparation of the rats, a 2-cm paraspinal incision was made at the level L4-S2. The unilateral L5 and L6 spinal nerves were exposed and tightly ligated distal to the dorsal root ganglia by using 4-0 silk suture. The incisions were closed, and animals were allowed to recover. Sham-operated control rats were prepared in an identical manner without L5/L6 nerve ligation. […] Separate groups of animals were used in tests for thermal and tactile hypersensitivity.
Tactile Hypersensitivity Test and Evaluation. Animals were placed in a suspended plastic chamber with a wire mesh platform and allowed to habituate for 15 minutes. Tactile hypersensitivity was determined by measuring paw withdrawal threshold in response to probing the plantar surface of the left hind paw with a series of 8 calibrated von Frey filaments (0.40, 0.70, 1.20, 2.00, 3.63, 5.50, 8.50, and 15.1 g). Measurements were taken before surgery and before and after administration of drug or vehicle. Withdrawal threshold was determined by sequentially increasing and decreasing stimulus intensity (“up and down” method), analyzed by using a Dixon nonparametric test, and expressed as the paw withdrawal threshold in gram force values. All studies were carried out 7 days after spinal nerve ligation (SNL).
Thermal Hypersensitivity Test (Radiant Heat Paw Withdrawal Test). Rats were placed in clear plastic chambers on a glass surface and were habituated for 15 minutes before testing. Thermal sensitivity was measured by using paw withdrawal latency to a radiant heat stimulus. A radiant heat source (i.e., infrared) was activated with a timer and focused onto the plantar surface of the left hind paw of a rat, and the latency to paw withdrawal was measured. A motion detector that halted both lamp and timer when the paw was withdrawn determined paw withdrawal latency. The latencies were measured before surgery and before and after drug or vehicle administration. A maximum cutoff of 33 seconds was used to prevent tissue damage. […]

[2] = test system: C57BL/6 mice; assay: Elevated-plus maze (anxiolytic effects); assay type: in vivo, mouse; settings: i.p., about 60 minutes before testing
Procedure: In Panel A, mice were administered (i.p.) the indicated doses of DCUK-OEt about 60 minutes before behavioral testing on the elevated-plus maze. The number of times entered and the time spent in the open arms of the plus-maze were recorded. In Panel B, groups of mice were administered (i.p.) 50 mg/kg DCUK-OEt in an injection vehicle (5% TWEEN 80/0.5% methylcellulose) and tested at the indicated times with comparison to mice injected with vehicle alone. In both panels, mice treated with vehicle alone (i.e., absent the DCUKA compound) were tested 60 minutes after injection of vehicle. A greater percent of time spent in the open arms indicates an anxiolytic action of the drug. Significant differences in the percent time spent on the open arms of the maze are evident at doses as low as 25mg/kg. […]
The anxiolytic effect of the DCUK-OMe was tested in C57BL/6 mice with an elevated-plus maze apparatus. […] A trained observer blind to the treatment conditions scored the number of entries into open arms and the number of entries into closed arms over a 5-minutes period. […] The percentage of open arm entries (open arm entries/total arm entries) was calculated for each animal and used as a measure of the anxiolytic/anxiogenic effects of drug treatment. In addition, the total number of entries made into the […] was recorded as a measure of drug effects on locomotor activity. […]

[3] = test system: primary cultures of rat cerebellar granule cells; assay: Glutamate-induced excitotoxic cell death; assay type: cell-based; settings: 100 micromolar glutamate
Procedure: Glutamate Excitotoxicity. Primary cultures of cerebellar granule cells were prepared from 7-day-old Sprague-Dawley rats. The cultures were maintained in plates containing 24 wells (volume of 1 mL/well). Culture density was about 1.5×10^6 cells/mL. Cell viability was assayed after 7 or 8 days in culture by the production of fluorescein, formed from fluorescein diacetate by esterases present in living cells. Cells were washed with magnesium ion-free Locke's buffer, and then exposed to 100 μM glutamate alone, glutamate and 10 μM glycine, or each of these conditions in the presence of 100 μM DCUKA or 100 μM DCUK-OMe at 25° C. for 30 minutes. DCUKA and DCUK-OMe were added in 2-μl aliquots to yield a final DMSO concentration of 0.2%. […] Fluorescence of each well was measured on a Perkin-Elmer HTS7000 plate reader (excitation 485 nm; emission 535 nm; 16 measurements per well) with optimal gain settings. For each 24-well plate, the fluorescence of one control culture well (i.e., not exposed to glutamate) was automatically set to the highest fluorescence value, and fluorescence values were determined in all other wells with the same gain settings. Fluorescence measurements in all 24 wells were normalized to the control culture and expressed as a percentage of this value. Data are expressed as percentage of cell death (100-percentage of control). […]

[4] = molecular target: rat brain type IIA Na+ channel (Nav1.2) (Rattus norvegicus, UniProt P04775); assay: Whole-cell patch clamp recordings of Na+ currents in CNaIIA-1 cells; assay type: cell-based; settings: fit of shift of inactivation curve
Chain of rat brain type IIA Na+ channel (Nav1.2) (P04775 whole entry): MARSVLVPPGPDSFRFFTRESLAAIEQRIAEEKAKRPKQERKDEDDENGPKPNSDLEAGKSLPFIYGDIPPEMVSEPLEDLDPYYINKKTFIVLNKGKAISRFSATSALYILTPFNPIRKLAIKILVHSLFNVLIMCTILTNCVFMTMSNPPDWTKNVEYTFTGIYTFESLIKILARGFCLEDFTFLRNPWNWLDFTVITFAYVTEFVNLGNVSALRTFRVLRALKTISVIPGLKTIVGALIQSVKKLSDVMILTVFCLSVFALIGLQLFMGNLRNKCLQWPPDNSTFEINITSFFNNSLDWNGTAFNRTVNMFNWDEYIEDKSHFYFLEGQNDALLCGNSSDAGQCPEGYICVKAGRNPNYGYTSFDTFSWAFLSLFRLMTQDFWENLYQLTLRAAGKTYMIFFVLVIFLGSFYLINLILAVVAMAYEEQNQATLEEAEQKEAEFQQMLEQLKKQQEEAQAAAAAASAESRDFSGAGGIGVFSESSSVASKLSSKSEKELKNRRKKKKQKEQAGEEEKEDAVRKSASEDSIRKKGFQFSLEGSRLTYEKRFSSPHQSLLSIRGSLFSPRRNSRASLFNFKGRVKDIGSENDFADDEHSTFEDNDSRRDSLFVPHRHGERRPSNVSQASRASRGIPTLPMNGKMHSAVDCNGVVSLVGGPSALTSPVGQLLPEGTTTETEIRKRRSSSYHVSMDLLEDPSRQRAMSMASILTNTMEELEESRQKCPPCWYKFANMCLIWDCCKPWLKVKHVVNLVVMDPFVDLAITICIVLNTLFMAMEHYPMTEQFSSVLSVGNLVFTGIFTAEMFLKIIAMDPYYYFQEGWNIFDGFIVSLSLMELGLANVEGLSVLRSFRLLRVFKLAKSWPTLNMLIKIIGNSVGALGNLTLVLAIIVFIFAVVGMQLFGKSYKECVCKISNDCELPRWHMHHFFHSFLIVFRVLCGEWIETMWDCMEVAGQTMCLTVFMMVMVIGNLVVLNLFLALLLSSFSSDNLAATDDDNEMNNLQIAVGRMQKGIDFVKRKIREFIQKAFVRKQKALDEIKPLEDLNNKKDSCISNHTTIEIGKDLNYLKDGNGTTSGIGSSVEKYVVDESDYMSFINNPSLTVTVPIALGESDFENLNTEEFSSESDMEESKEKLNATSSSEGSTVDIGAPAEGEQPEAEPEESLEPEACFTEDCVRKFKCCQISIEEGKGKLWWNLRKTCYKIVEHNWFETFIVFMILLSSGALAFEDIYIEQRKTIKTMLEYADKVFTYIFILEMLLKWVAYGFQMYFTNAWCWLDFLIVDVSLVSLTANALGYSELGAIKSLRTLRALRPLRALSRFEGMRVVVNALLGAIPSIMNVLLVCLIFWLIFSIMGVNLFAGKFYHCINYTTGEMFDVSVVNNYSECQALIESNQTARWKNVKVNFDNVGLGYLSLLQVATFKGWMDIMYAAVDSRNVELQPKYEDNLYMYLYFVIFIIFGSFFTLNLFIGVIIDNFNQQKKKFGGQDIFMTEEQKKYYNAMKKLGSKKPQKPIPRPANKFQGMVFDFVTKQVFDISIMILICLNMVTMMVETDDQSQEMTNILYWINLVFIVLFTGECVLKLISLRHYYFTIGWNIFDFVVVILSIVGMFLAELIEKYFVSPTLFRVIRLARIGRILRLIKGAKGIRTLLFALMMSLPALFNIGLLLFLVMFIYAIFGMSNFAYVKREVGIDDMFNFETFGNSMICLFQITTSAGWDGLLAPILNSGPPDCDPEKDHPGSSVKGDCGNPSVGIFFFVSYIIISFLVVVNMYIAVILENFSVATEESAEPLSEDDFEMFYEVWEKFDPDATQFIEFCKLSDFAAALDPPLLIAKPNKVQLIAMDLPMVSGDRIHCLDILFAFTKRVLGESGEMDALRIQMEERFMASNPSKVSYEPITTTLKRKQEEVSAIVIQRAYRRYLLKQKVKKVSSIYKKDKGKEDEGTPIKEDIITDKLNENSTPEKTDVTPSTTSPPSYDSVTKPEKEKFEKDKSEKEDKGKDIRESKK

| SMILES | normalization of thermal versus tactile hyperalgesia ([1]; 30 or 100 mg/kg) | inhibition of thermal hyperalgesia ([1]; i.p., 100 mg/kg) [%] | reduction of thermal hyperalgesia ([1]; oral, 200 mg/kg emulsion) | inhibition of thermal hyperalgesia ([1]; p.o., about 150 mg/kg) [%] | lowest dose with significant differences in percent time spent on the open arms [2] [mg/kg] | protection from glutamate-induced damage ([3]; 100 μM compound) | reduction of cell death ([3]; 10 micromolar compound) | pKi ([4]; read-out: KI, dissociation constant for inactivated states) | pKd ([4]; read-out: KR, dissociation constant for the resting state) |
| --- | --- | --- | --- | --- | --- | --- | --- | --- | --- |
| CCOC(=O)c1cc(NC(=O)N(c2ccccc2)c2ccccc2)c2c(Cl)cc(Cl)cc2n1 [DCUK-OEt, N,N-diphenyl-4-ureido-5,7-dichloro-2-carboxy quinoline ethyl ester] | thermal hyperalgesia is normalized by administration of DCUKA ethyl ester to a greater extent than tactile hyperalgesia | 75 | about 70% | 45 | 25 | – | – | – | – |
| O=C(O)c1cc(NC(=O)N(c2ccccc2)c2ccccc2)c2c(Cl)cc(Cl)cc2n1 [DCUKA, N,N-diphenyl-4-ureido-5,7-dichloro-2-carboxyquinoline] | – | – | – | – | – | completely protected | more than 50% | 5.01 | 3.61 |

Reference: patent US20110184018A1, “METHOD FOR TREATING PERIPHERAL NEUROPATHIC PAIN” (LOHOCLA RESEARCH CORPORATION, priority 2005, published 2011)
